Measured values as given in patent US20190071416A1, “COMPOUNDS FOR TREATMENT OF CANCER AND EPIGENETICS” (Agency For Science, Technology and Research, priority 2015, published 2019).
Like-named read-outs stand apart in the source and are kept apart here. Blank lines part the entries; values can stand above or below the molecule they belong to.

Experiments:
HepG2 = assay: Cell proliferation assay (CellTiter-Glo), HepG2; assay type: cell-based; settings: Homo sapiens, HepG2, 72 h; 3 days
Experimental: (§1) The cell proliferation assays were tested in several cell lines, including HepG2,HCT116, A549, HPAF-II, CFPAC-1,HuH7, SNU398,Hep3B, and HEK293. All cell lines are from ATCC. HepG2, HPAF-II and HEK293 are cultured in Eagle's MEM media supplemented with fetal bovine serum. HCT116 is cultured in McCoy media supplemented with fetal bovine serum. Huh-7 is cultured in DMEM low glucose (1000 mg/L glucose) with 10% FBS, 1% L-Glutamate and 1% Penicillin/Streptomycin. SNU398 is cultured in RPMI with 10% FBS with 1% L-Glutamate and 1% Penicillin/Streptomycin. Hep3B is cultured in Eagle's MEM with 10% FBS, 1% L-Glutamate and 1% Penicillin/Streptomycin. A549 is cultured in RPMI media supplemented with fetal bovine serum while CFPAC-1 is cultured in IMDM media supplemented with fetal bovine serum. All media and serum are purchased from Gibco (Lifetech). All cells were grown in a temperature controlled incubator at 37° C. and 5% CO2.
(§2) Cell proliferation assay was performed using CellTiter-Glo Luminescent Cell Viability Assay (Promega) following manufacturer's instructions. The cell-line of interest was treated with compounds that were serial diluted in its respective media. Plates were incubated for 3 days at 37° C. in 5% CO2. After 3 days, an equal volume of Cell Titer Glo reagent was added. Plates were rocked on a rotator for 2 h. 100 μL of each well were transferred to a 96-well opaque plate, and luminescence emitted was measured with the Tecan Safire II.

HCT-116 = assay: Cell proliferation assay (CellTiter-Glo), HCT-116; assay type: cell-based; settings: Homo sapiens, HCT-116, 72 h; 3 days
Experimental: as §1, §2

CFPAC-1 = assay: Cell proliferation assay (CellTiter-Glo), CFPAC-1; assay type: cell-based; settings: Homo sapiens, CFPAC-1, 72 h; 3 days
Experimental: as §1, §2

Hep G2 cells = assay: Soft agar colony formation assay; assay type: cell-based, human; settings: Homo sapiens, HepG2
Experimental: Hep G2 cells were purchased from ATCC. Hep G2 cells were maintained in Eagle's Minimum Essential Medium (Sigma, Cat No: #M0643) supplemented with 10% Fetal Bovine Serum (Hyclone, Cat No: SV30087.03), 2 mM L-glutamine, 100 units/mL penicillin and 100 μg/mL streptomycin (Life Technologies, Cat No: 10378-016). The soft agar assays were performed in concordance to the ETC approved method report for soft agar assay (ETC document number: RD0019). Briefly, 600 μL of 0.6% agar was added to 24-well plate (Corning, Cat No: 3738) to form the base layer. This is followed by the addition of 500 μL of 0.36% agar middle layer (containing 10′000Hep G2 cells). Lastly, 500 μL of fresh growth medium (containing the corresponding serially diluted compound) was added above the middle layer. The plates were incubated at 37° C. with 5% carbon dioxide in a humidified incubator for 1 to 2 weeks. 70 μL of thiazolyl blue tetrazolium bromide (5 mg/mL, Sigma Cat No: M5655) was added to each well and the plates were incubated at 37° C. for 2 h. Colonies were counted with GelCount® instrument (Oxford Optronix). The colony counts were plotted against compound concentrations using the Graphpad Prism software. In addition, the software was used to perform non-linear curve fitting and the calculation of IC50.

A549 = assay: Cell proliferation assay (CellTiter-Glo), A549; assay type: cell-based; settings: Homo sapiens, A549, 72 h; 3 days
Experimental: as §1, §2

SMYD3 = target: T1, SMYD3 (Homo sapiens, UniProt Q9H7B4); assay: SMYD3 biochemical assay (MTase-Glo, MAP3K2 peptide substrate)
T1 sequence (Q9H7B4 1-428): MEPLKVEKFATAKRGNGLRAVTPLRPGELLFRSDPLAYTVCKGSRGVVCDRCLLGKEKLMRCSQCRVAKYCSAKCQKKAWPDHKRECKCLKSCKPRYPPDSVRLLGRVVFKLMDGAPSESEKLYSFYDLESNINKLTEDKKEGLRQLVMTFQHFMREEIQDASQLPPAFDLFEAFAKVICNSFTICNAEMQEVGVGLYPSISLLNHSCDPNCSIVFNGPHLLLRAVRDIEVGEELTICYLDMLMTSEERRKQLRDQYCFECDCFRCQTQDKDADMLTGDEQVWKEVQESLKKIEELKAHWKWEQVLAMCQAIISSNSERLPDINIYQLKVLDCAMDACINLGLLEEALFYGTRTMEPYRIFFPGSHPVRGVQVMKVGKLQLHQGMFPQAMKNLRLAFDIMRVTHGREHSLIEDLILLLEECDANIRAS
Summary of the method: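 Methylation of MAP3K2 peptide (10 µM final) with SAM (1.0 µM final) by SMYD3, 30 min at room temperature. SAH formed was enzymatically converted to ATP and detected as luminescence with MTase-Glo reagents; IC50 by non-linear regression.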

HPAF-II = assay: Cell proliferation assay (CellTiter-Glo), HPAF-II; assay type: cell-based; settings: Homo sapiens, 72 h, 3 days
Experimental: as §1, §2

[1] = Human liver microsomes stability test; assay type: in vitro ADME; settings: read-out: half-life, t1/2
[2] = Mouse liver microsomes stability test; assay type: in vitro ADME; settings: read-out: half-life, t1/2
[3] = test system: MAP3K2 methylation (me2/me3-Lys 260); assay: SMYD3 mediated methylation of MAP3K2 in HEK293 cells (Western blot); assay type: cell-based, Human; settings: 25 μM
Experimental: The cells were seeded in 6 well plates. After seeding for 24 h, the cells were treated with either DMSO or 25 μM compound and incubated for 24 hr. The cells were trypsinized and the lysate was extracted with RIPA buffer (Santa Cruz). The total protein concentration of lysate is quantified using the standard Bradford assay (Biorad protein assay, microplate standard assay).
Western blot analysis for detecting methylated MAP3K2 was carried out using a customized Anti-me2/me3-Lys 260 MAP3K2 at 1:500 and the total MAP3K2 was detected using Anti-MEKK2 (AB33918) using a 1:10,000 dilution.
B019 was further tested for its ability to inhibit SMYD3 in cells through its effects on cellular MAP3K2 methylation. This was performed using an antibody against the MAP3K2 (me2/me3), Anti-ME2/ME3-K260-MAP3K2 (1:500) and total MAP3K2, Anti-MEKK2 #ab33918 (1:10,000).

[4] = Table 1, MAP3K2 peptide as substrate, read-out: IC50
[5] = Table 2, read-out: Biochemical assay IC50
[6] = Table 3, MTase assay, MAP3K2 peptide substrate, read-out: IC50

half-life [1]: 9 min | half-life [2]: 4 min | IC50 (SMYD3; read-out: active against SMYD3): 6200 nM
SMILES: CCOC(=O)N1CCN(C(=O)c2ccc3c(Cl)c4c(nc3c2)CCCC4)CC1 [X4, ethyl 4-(9-chloro-5,6,7,8-tetrahydroacridine-3-carbonyl)piperazine-1-carboxylate, reference compound]
inhibition of methylation of MAP3K2 in cells [3]: unable to inhibit

IC50 (SMYD3; [6]): 350 nM
SMILES: CCCOC(=O)N1CCN(C(=O)c2ccc3c(Cl)cc(-c4ccc(N(C)C)cc4)nc3c2)CC1 [B055, Propyl 4-(4-chloro-2-(4-(dimethylamino)phenyl)quinoline-7-carbonyl)piperazine-1-carboxylate]

IC50 (SMYD3; [6]): 110 nM
SMILES: CCCOC(=O)N1CCN(C(=O)c2ccc3c(Cl)cc(-c4ccc(OC)c(CO)c4)nc3c2)CC1 [B100, Propyl 4-(4-chloro-2-(3-(hydroxymethyl)-4-methoxyphenyl)quinoline-7-carbonyl)piperazine-1-carboxylate]

IC50 (SMYD3; [6]): 220 nM
SMILES: CCCOC(=O)N1CCN(C(=O)c2ccc3c(Cl)c(C)c(-c4ccccc4)nc3c2)C[C@H]1C [B007, Propyl (R)-4-(4-chloro-3-methyl-2-phenylquinoline-7-carbonyl)-2-methylpiperazine-1-carboxylate]

IC50 (SMYD3; [6]): 34 nM
SMILES: CCCOC(=O)N1CCN(C(=O)c2ccc3c(Cl)cc(-c4cnn(C5COC5)c4)nc3c2)CC1 [B271, Propyl 4-(4-chloro-2-(1-(oxetan-3-yl)-1H-pyrazol-4-yl)quinoline-7-carbonyl)piperazine-1-carboxylate]

IC50 (SMYD3; [6]): 150 nM
SMILES: CCCOC(=O)N1CCN(C(=O)c2ccc3c(Cl)c(C)c(-c4ccccc4)nc3c2)[C@@H](C)C1 [B016, Propyl (S)-4-(4-chloro-3-methyl-2-phenylquinoline-7-carbonyl)-3-methylpiperazine-1-carboxylate]

IC50 (SMYD3; [6]): 77 nM
SMILES: C[C@@H]1CN(C(=O)c2ccc3c(Cl)cc(-c4ccccc4)nc3c2)CCN1C(=O)c1cn(C2CC2)nn1 [D005, (R)-(4-Chloro-2-phenylquinolin-7-yl)(4-(1-cyclopropyl-1H-1,2,3-triazole-4-carbonyl)-3-methylpiperazin-1-yl)methanone]

IC50 (SMYD3; [6]): 84 nM
SMILES: CCCOC(=O)N1CCN(C(=O)c2ccc3c(Cl)cc(-c4cccc(C(C)O)c4)nc3c2)CC1 (stereo not shown) [B158, Propyl 4-(4-chloro-2-(3-(1-hydroxyethyl)phenyl)quinoline-7-carbonyl)piperazine-1-carboxylate]

IC50 (SMYD3; [6]): 550 nM
SMILES: CCCOC(=O)N1C2CCCC1CN(C(=O)c1ccc3c(Cl)ccnc3c1)C2 [C007, Propyl 3-(4-chloroquinoline-7-carbonyl)-3,9-diazabicyclo[3.3.1]nonane-9-carboxylate]

IC50 (SMYD3; [6]): 1800 nM
SMILES: CCCOC(=O)N1CCN(C(=O)c2ccc3c(Cl)c(C)c(-c4ccc(C#N)cc4)nc3c2)CC1 [B037, Propyl 4-(4-chloro-2-(4-cyanophenyl)-3-methylquinoline-7-carbonyl)piperazine-1-carboxylate]

Continued, molecule first:

SMILES: CCCOC(=O)N1CCN(C(=O)c2ccc3c(Cl)c4c(nc3c2)CC(c2ccccn2)CC4)C[C@H]1C (stereo partly drawn) [A074, Propyl (2R)-4-(9-chloro-6-(pyridin-2-yl)-5,6,7,8-tetrahydroacridine-3-carbonyl)-2-methylpiperazine-1-carboxylate]
GI50 (HepG2): 10.7 µM | GI50 (HCT-116): 11.4 µM | GI50 (CFPAC-1): 36.9 µM | IC50 (Hep G2 cells; Hep G2, soft agar): 710 nM | inhibition at 10 µM (Hep G2 cells; highest concentration tested (10 μM)): ~100% | GI50 (A549): 15.8 µM | IC50 (SMYD3; [4]): 152 nM | IC50 (SMYD3; [5]): 152 nM | IC50 (SMYD3; [6]): 150 nM | GI50 (HPAF-II): 50.4 µM

SMILES: CCCOC(=O)N1CCN(C(=O)c2ccc3c(Cl)c4c(nc3c2)CC(CCN)CC4)[C@@H](C)C1 (stereo partly drawn) [A088, Propyl (3S)-4-(6-(2-aminoethyl)-9-chloro-5,6,7,8-tetrahydroacridine-3-carbonyl)-3-methylpiperazine-1-carboxylate]
GI50 (HepG2): 17.1 µM | GI50 (HCT-116): 16.1 µM | GI50 (CFPAC-1): 21.9 µM | GI50 (A549): 28.4 µM | IC50 (SMYD3; [4]): 92 nM | IC50 (SMYD3; [5]): 92 nM | IC50 (SMYD3; [6]): 90 nM | GI50 (HPAF-II): 33.7 µM

SMILES: CCCOC(=O)N1CCN(C(=O)c2ccc3c(Cl)c4c(nc3c2)CCC(CCN)C4)CC1 (stereo not shown) [A066, Propyl 4-(7-(2-aminoethyl)-9-chloro-5,6,7,8-tetrahydroacridine-3-carbonyl)piperazine-1-carboxylate]
GI50 (HepG2): 33.1 µM | GI50 (HCT-116): 24.9 µM | GI50 (CFPAC-1): 15.3 µM | GI50 (A549): 18.4 µM | IC50 (SMYD3; [4]): 46.1 nM | IC50 (SMYD3; [5]): 46.1 nM | IC50 (SMYD3; [6]): 300 nM | GI50 (HPAF-II): 11.1 µM

SMILES: CCCOC(=O)N1CCN(C(=O)c2ccc3c(Cl)c4c(nc3c2)CC(c2ncccc2C)CC4)C[C@H]1C (stereo partly drawn) [A108, Propyl (2R)-4-(9-chloro-6-(3-methylpyridin-2-yl)-5,6,7,8-tetrahydroacridine-3-carbonyl)-2-methylpiperazine-1-carboxylate]
IC50 (SMYD3; [6]): 480 nM

SMILES: CCCOC(=O)N1CC2CC(C1)N2C(=O)c1ccc2c(Cl)c3c(nc2c1)CCCC3 [A014, Propyl 6-(9-chloro-5,6,7,8-tetrahydroacridine-3-carbonyl)-3,6-diazabicyclo[3.1.1]heptane-3-carboxylate]
IC50 (SMYD3; [6]): 1000 nM

SMILES: CCCOC(=O)N1CC2CCC(C1)N2C(=O)c1ccc2c(Cl)c3c(nc2c1)CCCC3 [A004, Propyl 8-(9-chloro-5,6,7,8-tetrahydroacridine-3-carbonyl)-3,8-diazabicyclo[3.2.1]octane-3-carboxylate]
IC50 (SMYD3; [6]): 350 nM

SMILES: CCCOC(=O)N1CCN(C(=O)c2ccc3c(Cl)c4c(nc3c2)CCC(CC(=O)OC)C4)CC1 (stereo not shown) [A034, Propyl 4-(9-chloro-7-(2-methoxy-2-oxoethyl)-5,6,7,8-tetrahydroacridine-3-carbonyl)piperazine-1-carboxylate]
IC50 (SMYD3; [6]): 380 nM
